Source: US20050159599A1, “Cyclic compound, process for producing the same, and pest control agent” (priority 2002, published 2005)

Experiments:
Assay type in all cases: in vivo
Plutella xylostella [1] = assay: Insecticidal effect for Plutella xylostella by immersion treatment of host crop root (Test Example 3); conditions: 25 ppm, cabbage root immersed 5 days, ten second-instar larvae on stem and leaves, counted on the fifth day, 24° C.; for pest or weed control at 25 ppm: Plutella xylostella, 120 h, read-out: rate of dead pests (%)
Experimental: Insecticidal Effect for Plutella xylostella by Immersion Treatment of Host Crop Root
Roots of 4-leave stage cabbage was washed with tap water to remove soil, and then immersed in a pesticidal solution which was prepared by dissolving 5 mg of test compound (represented by the compound Nos. in the above Examples) in 0.5 ml of acetone containing Tween 20 (trade name) and then diluting it to the prescribed concentration (25 ppm) with ion-exchange water, and which was filled in a light-shielded Erlenmeyer flask (100 ml). On the fifth day after immersion of root, the root was cut off, and the stem and leaves were put into an ice cream cup (180 ml). Ten second-instar larvae of Plutella xylostella were set free therein, and the cup was left in a temperature-controlled breeding room (24° C.). On the fifth day after, the number of surviving Plutella xylostella was examined. The rate of dead pests was calculated by the following formula. rate of dead pests (%)=(number of dead pests/number of test pests)×100

Spodoptera litura [2] = assay: Insecticidal effect for Spodoptera litura by spraying treatment to host crop (Test Example 2); conditions: 100 ppm, sprayed on soybean, third-instar larvae of Spodoptera litura, fifth day after; for pest or weed control at 100 ppm: 120 h, read-out: rate of dead pests (%)
Outline: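 Ten third-instar larvae held at 25° C. on two excised primary soybean leaves previously sprayed to dripping with 100 ppm test solution. Mortality (%) calculated from dead versus tested larvae on the fifth day.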

Spodoptera litura [3] = assay: Insecticidal effect for Spodoptera litura by immersion treatment of host crop root (Test Example 4); conditions: 25 ppm, soybean root immersion 5 days, second-instar larvae of Spodoptera litura, fifth day after; for pest or weed control at 25 ppm: 120 h, read-out: rate of dead pests (%)
Outline: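 Soil was washed from the roots of soybean plants at the primary-leaf stage, and the roots were immersed in a pesticidal solution held in a light-shielded 100 ml Erlenmeyer flask. The solution was made from acetone containing Tween 20, diluted with ion-exchange water. Five days after root immersion, two primary leaves were cut and placed in a 180 ml cup with ten second-instar Spodoptera litura larvae, then kept at 25° C. Survivors were counted five days later. The rate of dead pests (%) was calculated as dead pests divided by test pests, times 100.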

Plutella xylostella [4] = assay: Insecticidal effect for Plutella xylostella by immersion treatment of host crop (Test Example 1); conditions: cabbage leaf dipped, second-instar larvae of Plutella xylostella, fifth day after; for rate of dead pests (%): 100 ppm; for pest or weed control at 100 ppm: foliar, 120 h, read-out: rate of dead pests (%)
Experimental: Insecticidal Effect for Plutella xylostella by Immersion Treatment of Host Crop One true leaf of 7 to 8-leave stage cabbage was cut off and dipped in a pesticidal solution for a few seconds, which was prepared by dissolving 5 mg of test compound (represented by the compound Nos. in the above Examples) in 0.5 ml of acetone containing Tween 20 (trade name) and then diluting it to the prescribed concentration (100 ppm) with Dain (trade name, sticker) water diluted 5000-fold. After drying the pesticidal solution, the leaf was put into an ice cream cup (180 ml), and ten second-instar larvae of Plutella xylostella were set free therein. The cup was left in a temperature-controlled breeding room (24° C.). On the fifth day after, the number of surviving Plutella xylostella was examined. The rate of dead pests was calculated by the following formula. rate of dead pests (%)=(number of dead pests/number of test pests)×100

Structure (SMILES)	rate of dead pests (%) (Plutella xylostella [1])	rate of dead pests (%) (Spodoptera litura [2])	rate of dead pests (%) (Spodoptera litura [3])	rate of dead pests (%) (Plutella xylostella [4])	pest or weed control at 25 ppm (Plutella xylostella [1]) [%]	pest or weed control at 100 ppm (Spodoptera litura [2]) [%]	pest or weed control at 25 ppm (Spodoptera litura [3]) [%]	pest or weed control at 100 ppm (Plutella xylostella [4]) [%]
O=C(c1c(F)cccc1F)N1COCN(c2ccc([S+]([O-])C(F)(F)C(F)Cl)cc2F)C1=O (stereo not shown) [I-8]	100	100	100	100				
O=C(c1c(F)cccc1F)N1COCN(c2ccc([S+]([O-])C(F)(F)C(F)Cl)cc2)C1=O (stereo not shown) [I-11]	100	100	100	100				
O=C(c1c(F)cccc1F)N1COCN(c2ccc([S+]([O-])C(F)(F)C(F)Cl)cc2Cl)C1=O (stereo not shown) [I-14]	100	100	100					
O=C(c1c(F)cccc1F)N1COCN(c2ccc([S+]([O-])C(F)(F)C(F)F)cc2)C1=O (stereo not shown) [I-20]	100	100	95	100				
O=C(c1c(F)cccc1F)N1COCN(c2ccc([S+]([O-])C(F)(F)C(F)F)cc2F)C1=O (stereo not shown) [I-23]	95	100	100					
CSc1ccc(N2COCN(C(=O)c3c(F)cccc3F)C2=O)c(F)c1 [I-28]	100	100	100	100				
O=C(c1c(F)cccc1F)N1COCN(c2ccc(SCC(F)(F)F)cc2F)C1=O [I-34]	100	100		100				
O=C(c1c(F)cccc1F)N1COCN(c2ccc(SC(F)F)cc2F)C1=O [I-41, 3-(2,6-difluorobenzoyl)-5-[4-(difluoromethylthio)-2-fluorophenyl]tetrahydro-4H-1,3,5-oxadiazin-4-one]					100	100	100	100
Cc1cc(N2COCN(C(=O)c3c(F)cccc3F)C2=O)ccc1SC(F)(F)F [I-71]	95	100	90					
O=C(c1c(F)cccc1F)N1COCN(c2ccc([S+]([O-])C(F)(F)F)cc2Cl)C1=O (stereo not shown) [I-75]	95	100	100					
O=C(c1c(F)cccc1F)N1COCN(c2ccc([S+]([O-])C(F)(F)F)c(Cl)c2)C1=O (stereo not shown) [I-78]	90	100	100					
O=C(c1c(F)cccc1F)N1COCN(c2ccc([S+]([O-])C(F)(F)F)c(F)c2)C1=O (stereo not shown) [I-81]	100	100		100				
O=C(c1c(F)cccc1F)N1COCN(c2c(F)cc([S+]([O-])C(F)(F)F)cc2F)C1=O (stereo not shown) [I-105]	100	100	100					
Cc1c(N2COCN(C(=O)c3c(F)cccc3F)C2=O)ccc([S+]([O-])C(F)(F)F)c1Cl (stereo not shown) [I-123]	100	100						
Cc1cc([S+]([O-])C(F)(F)F)c(F)cc1N1COCN(C(=O)c2c(F)cccc2F)C1=O (stereo not shown) [I-126]	100	100						
O=C(c1c(F)cccc1F)N1COCN(c2ccc([S+]([O-])C(F)(F)C(F)(F)F)cc2F)C1=O (stereo not shown) [I-129, 3-(2,6-difluorobenzoyl)-5-[2-fluoro-4-(1,1,2,2,2-pentafluoroethylsulfinyl)phenyl]tetrahydro-4H-1,3,5-oxadiazin-4-one]					100	100	100	
CSc1ccc(N2COCN(C(=O)c3c(F)cccc3Cl)C2=O)c(F)c1 [I-205]	90	100	100	100				
O=C(c1c(F)cccc1Cl)N1COCN(c2ccc([S+]([O-])C(F)(F)F)cc2F)C1=O (stereo not shown) [I-222]	100	100	100	100				
Cc1cc(N2COCN(C(=O)c3c(F)cccc3Cl)C2=O)ccc1[S+]([O-])C(F)(F)F (stereo not shown) [I-249]	95	100						
O=C(c1c(F)cccc1Cl)N1COCN(c2ccc([S+]([O-])C(F)(F)C(F)(F)C(F)(F)F)cc2F)C1=O (stereo not shown) [I-321]	95	100	100					
CS(=O)(=O)N1CN(C(=O)c2c(F)cccc2F)C(=O)N(c2cc(Cl)c(F)c(Cl)c2F)C1 [III-58]	90	100	100	100				
COC(=O)C(=O)N1CN(C(=O)c2c(F)cccc2F)C(=O)N(c2cc(Cl)c(F)c(Cl)c2F)C1 [III-64]	90	100	90	100				
O=C(c1c(F)cccc1F)N1CNCN(c2ccc([S+]([O-])C(F)(F)C(F)Cl)cc2F)C1=O (stereo not shown) [III-91]	100	100	95					
CN1CN(C(=O)c2c(F)cccc2F)C(=O)N(c2ccc(SC(F)F)cc2F)C1 [III-148, 1-(2,6-difluorobenzoyl)-3-[4-(difluoromethylthio)-2-fluorophenyl]-5-methyltetrahydro-1,3,5-triazin-2(1H)-one]					100	100	100	100
CC(=O)N1CN(C(=O)c2c(F)cccc2F)C(=O)N(c2ccc(SC(F)F)cc2F)C1 [III-149]	95	100	100	100				
CN1CN(C(=O)c2c(F)cccc2F)C(=O)N(c2ccc([S+]([O-])C(F)F)cc2F)C1 (stereo not shown) [III-152, 1-(2,6-difluorobenzoyl)-3-[4-(difluoromethylsulfinyl)-2-fluorophenyl]-5-methyltetrahydro-1,3,5-triazin-2(1H)-one]					100	100	100	100
CC(=O)N1CN(C(=O)c2c(F)cccc2F)C(=O)N(c2ccc([S+]([O-])C(F)F)cc2F)C1 (stereo not shown) [III-153]	100	100	100	100				
CS(=O)(=O)N1CN(C(=O)c2c(F)cccc2F)C(=O)N(c2ccc([S+]([O-])C(F)F)cc2F)C1 (stereo not shown) [III-154]	100	100	100					
O=C(c1c(F)cccc1F)N1CN=CN(c2cc(Cl)c(F)c(Cl)c2F)C1=O [V-4, 1-(3,5-dichloro-2,4-difluorophenyl)-3-(2,6-difluorobenzoyl)-3,4-dihydro-1,3,5-triazin-2(1H)-one]					95	100		100
